In US10125138B2, “Triazolotriazinone derivatives having activity a s herbicides” (Syngenta Participations AG, priority 2015, dated 2018):

What was measured:
Format in all cases: in vivo
Details in all cases: 1000 g/h, evaluated after 13 days, five point scale
[1] = test system: Echinochloa crus-galli (ECHCG); assay: Post-emergence glasshouse herbicide test, Echinochloa crus-galli
Procedure: (§1) Seeds of a variety of test species are sown in standard soil in pots (Lolium perenne (LOLPE), Solanum nigrum (SOLNI), Amaranthus retoflexus (AMARE), Setaria faberi (SETFA), Echinochloa crus-galli (ECHCG), Ipomoea hederacea (IPOHE)). After cultivation for one day (pre-emergence) or after 8 days cultivation (post-emergence) under controlled conditions in a glasshouse (at 24/16° C., day/night; 14 hours light; 65% humidity), the plants are sprayed with an aqueous spray solution derived from the formulation of the technical active ingredient in acetone/water (50:50) solution containing 0.5% Tween 20 (polyoxyethelyene sorbitan monolaurate, CAS RN 9005-64-5). […] The test plants are then grown in a glasshouse under controlled conditions in a glasshouse (at 24/16° C., day/night; 14 hours light; 65% humidity) and watered twice daily. After 13 days for pre and post-emergence, the test is evaluated for the percentage damage caused to the plant. The biological activities are shown in the following table on a five point scale (5=80-100%; 4=60-79%; 3=40-59%; 2=20-39%; 1=0-19%).

[2] = test system: Ipomoea hederacea (IPOHE); assay: Post-emergence glasshouse herbicide test, Ipomoea hederacea
Procedure: as §1

[3] = test system: Lolium perenne (LOLPE); assay: Post-emergence glasshouse herbicide test, Lolium perenne
Procedure: as §1

[4] = test system: Ipomoea hederacea (IPOHE); assay: Pre-emergence glasshouse herbicide test, Ipomoea hederacea
Procedure: as §1

[5] = test system: Setaria faberi (SETFA); assay: Post-emergence glasshouse herbicide test, Setaria faberi
Procedure: as §1

[6] = test system: Echinochloa crus-galli (ECHCG); assay: Pre-emergence glasshouse herbicide test, Echinochloa crus-galli
Procedure: as §1

[7] = test system: Setaria faberi (SETFA); assay: Pre-emergence glasshouse herbicide test, Setaria faberi
Procedure: as §1

[8] = test system: Amaranthus retoflexus (AMARE); assay: Pre-emergence glasshouse herbicide test, Amaranthus retoflexus
Procedure: as §1

[9] = test system: Lolium perenne (LOLPE); assay: Pre-emergence glasshouse herbicide test, Lolium perenne
Procedure: as §1

[10] = test system: Solanum nigrum (SOLNI); assay: Post-emergence glasshouse herbicide test, Solanum nigrum
Procedure: (§2) Seeds of a variety of test species are sown in standard soil in pots (Lolium perenne (LOLPE), Solanum nigrum (SOLNI), Amaranthus retoflexus (AMARE), Setaria faberi (SETFA), Echinochloa crus-galli (ECHCG), Ipomoea hederacea (IPOHE)). After cultivation for one day (pre-emergence) or after 8 days cultivation (post-emergence) under controlled conditions in a glasshouse (at 24/16° C., day/night; 14 hours light; 65% humidity), the plants are sprayed with an aqueous spray solution derived from the formulation of the technical active ingredient in acetone/water (50:50) solution containing 0.5% Tween 20 (polyoxyethelyene sorbitan monolaurate, CAS RN 9005-64-5). Compounds are applied at 1000 g/h. The test plants are then grown in a glasshouse under controlled conditions in a glasshouse (at 24/16° C., day/night; 14 hours light; 65% humidity) and watered twice daily. After 13 days for pre and post-emergence, the test is evaluated for the percentage damage caused to the plant. The biological activities are shown in the following table on a five point scale (5=80-100%; 4=60-79%; 3=40-59%; 2=20-39%; 1=0-19%).

[11] = test system: Solanum nigrum (SOLNI); assay: Pre-emergence glasshouse herbicide test, Solanum nigrum
Procedure: as §2

[12] = test system: Amaranthus retoflexus (AMARE); assay: Post-emergence glasshouse herbicide test, Amaranthus retoflexus
Procedure: as §1

## CCCn1ncn2nc(C(=O)Nc3nnnn3C)c(=O)nc12 [Compound 1.007]
[1]
  percentage damage caused to the plant, POST Application ECHCG: 5 (5=80-100%)
[2]
  percentage damage caused to the plant, POST Application IPOHE: 5 (5=80-100%)
[3]
  percentage damage caused to the plant, POST Application LOLPE: 3 (3=40-59%)
[4]
  percentage damage caused to the plant, PRE Application IPOHE: 4 (4=60-79%)
[5]
  percentage damage caused to the plant, POST Application SETFA: 5 (5=80-100%)
[6]
  percentage damage caused to the plant, PRE Application ECHCG: 5 (5=80-100%)
[7]
  percentage damage caused to the plant, PRE Application SETFA: 5 (5=80-100%)
[8]
  percentage damage caused to the plant, PRE Application AMARE: 5 (5=80-100%)
[9]
  percentage damage caused to the plant, PRE Application LOLPE: 4 (4=60-79%)
[10]
  percentage damage caused to the plant, POST Application SOLNI: 5 (5=80-100%)
[11]
  percentage damage caused to the plant, PRE Application SOLNI: 5 (5=80-100%)
[12]
  percentage damage caused to the plant, POST Application AMARE: 5 (5=80-100%)

## Cn1nnnc1NC(=O)c1nn2cnn(CCCC(F)(F)F)c2nc1=O [Compound 1.011]
[1]
  percentage damage caused to the plant, POST Application ECHCG: 5 (5=80-100%)
[2]
  percentage damage caused to the plant, POST Application IPOHE: 5 (5=80-100%)
[3]
  percentage damage caused to the plant, POST Application LOLPE: 3 (3=40-59%)
[4]
  percentage damage caused to the plant, PRE Application IPOHE: 4 (4=60-79%)
[5]
  percentage damage caused to the plant, POST Application SETFA: 5 (5=80-100%)
[6]
  percentage damage caused to the plant, PRE Application ECHCG: 4 (4=60-79%)
[7]
  percentage damage caused to the plant, PRE Application SETFA: 5 (5=80-100%)
[8]
  percentage damage caused to the plant, PRE Application AMARE: 5 (5=80-100%)
[9]
  percentage damage caused to the plant, PRE Application LOLPE: 2 (2=20-39%)
[10]
  percentage damage caused to the plant, POST Application SOLNI: 4 (4=60-79%)
[11]
  percentage damage caused to the plant, PRE Application SOLNI: 4 (4=60-79%)
[12]
  percentage damage caused to the plant, POST Application AMARE: 5 (5=80-100%)

## CCn1nnnc1NC(=O)c1nn2cnn(-c3ccccc3)c2nc1=O [Compound 1.013]
[1]
  percentage damage caused to the plant, POST Application ECHCG: 5 (5=80-100%)
[2]
  percentage damage caused to the plant, POST Application IPOHE: 5 (5=80-100%)
[3]
  percentage damage caused to the plant, POST Application LOLPE: 5 (5=80-100%)
[4]
  percentage damage caused to the plant, PRE Application IPOHE: 5 (5=80-100%)
[5]
  percentage damage caused to the plant, POST Application SETFA: 5 (5=80-100%)
[6]
  percentage damage caused to the plant, PRE Application ECHCG: 5 (5=80-100%)
[7]
  percentage damage caused to the plant, PRE Application SETFA: 5 (5=80-100%)
[8]
  percentage damage caused to the plant, PRE Application AMARE: 5 (5=80-100%)
[9]
  percentage damage caused to the plant, PRE Application LOLPE: 5 (5=80-100%)
[10]
  percentage damage caused to the plant, POST Application SOLNI: 5 (5=80-100%)
[11]
  percentage damage caused to the plant, PRE Application SOLNI: 5 (5=80-100%)
[12]
  percentage damage caused to the plant, POST Application AMARE: 5 (5=80-100%)

## CCCn1nnnc1NC(=O)c1nn2cnn(-c3ccccc3)c2nc1=O [Compound 1.014]
[1]
  percentage damage caused to the plant, POST Application ECHCG: 5 (5=80-100%)
[2]
  percentage damage caused to the plant, POST Application IPOHE: 5 (5=80-100%)
[3]
  percentage damage caused to the plant, POST Application LOLPE: 5 (5=80-100%)
[4]
  percentage damage caused to the plant, PRE Application IPOHE: 5 (5=80-100%)
[5]
  percentage damage caused to the plant, POST Application SETFA: 5 (5=80-100%)
[6]
  percentage damage caused to the plant, PRE Application ECHCG: 5 (5=80-100%)
[7]
  percentage damage caused to the plant, PRE Application SETFA: 5 (5=80-100%)
[8]
  percentage damage caused to the plant, PRE Application AMARE: 5 (5=80-100%)
[9]
  percentage damage caused to the plant, PRE Application LOLPE: 5 (5=80-100%)
[10]
  percentage damage caused to the plant, POST Application SOLNI: 5 (5=80-100%)
[11]
  percentage damage caused to the plant, PRE Application SOLNI: 5 (5=80-100%)
[12]
  percentage damage caused to the plant, POST Application AMARE: 5 (5=80-100%)

## Cn1nnnc1NC(=O)c1nn2cnn(-c3cccc(Cl)c3)c2nc1=O [Compound 1.018]
[1]
  percentage damage caused to the plant, POST Application ECHCG: 5 (5=80-100%)
[2]
  percentage damage caused to the plant, POST Application IPOHE: 5 (5=80-100%)
[3]
  percentage damage caused to the plant, POST Application LOLPE: 4 (4=60-79%)
[4]
  percentage damage caused to the plant, PRE Application IPOHE: 5 (5=80-100%)
[5]
  percentage damage caused to the plant, POST Application SETFA: 5 (5=80-100%)
[6]
  percentage damage caused to the plant, PRE Application ECHCG: 5 (5=80-100%)
[7]
  percentage damage caused to the plant, PRE Application SETFA: 5 (5=80-100%)
[8]
  percentage damage caused to the plant, PRE Application AMARE: 4 (4=60-79%)
[9]
  percentage damage caused to the plant, PRE Application LOLPE: 3 (3=40-59%)
[10]
  percentage damage caused to the plant, POST Application SOLNI: 5 (5=80-100%)
[11]
  percentage damage caused to the plant, PRE Application SOLNI: 5 (5=80-100%)
[12]
  percentage damage caused to the plant, POST Application AMARE: 5 (5=80-100%)

## Cn1nnnc1NC(=O)c1nn2cnn(-c3ccc(C(F)(F)F)cc3)c2nc1=O [Compound 1.022]
[1]
  percentage damage caused to the plant, POST Application ECHCG: 5 (5=80-100%)
[2]
  percentage damage caused to the plant, POST Application IPOHE: 4 (4=60-79%)
[3]
  percentage damage caused to the plant, POST Application LOLPE: 3 (3=40-59%)
[4]
  percentage damage caused to the plant, PRE Application IPOHE: 4 (4=60-79%)
[5]
  percentage damage caused to the plant, POST Application SETFA: 5 (5=80-100%)
[6]
  percentage damage caused to the plant, PRE Application ECHCG: 5 (5=80-100%)
[7]
  percentage damage caused to the plant, PRE Application SETFA: 5 (5=80-100%)
[8]
  percentage damage caused to the plant, PRE Application AMARE: 5 (5=80-100%)
[9]
  percentage damage caused to the plant, PRE Application LOLPE: 4 (4=60-79%)
[10]
  percentage damage caused to the plant, POST Application SOLNI: 5 (5=80-100%)
[11]
  percentage damage caused to the plant, PRE Application SOLNI: 5 (5=80-100%)
[12]
  percentage damage caused to the plant, POST Application AMARE: 5 (5=80-100%)

## Cc1cccc(-n2ncn3nc(C(=O)Nc4nnnn4C)c(=O)nc23)c1 [Compound 1.026]
[1]
  percentage damage caused to the plant, POST Application ECHCG: 5 (5=80-100%)
[2]
  percentage damage caused to the plant, POST Application IPOHE: 5 (5=80-100%)
[3]
  percentage damage caused to the plant, POST Application LOLPE: 4 (4=60-79%)
[4]
  percentage damage caused to the plant, PRE Application IPOHE: 4 (4=60-79%)
[5]
  percentage damage caused to the plant, POST Application SETFA: 5 (5=80-100%)
[6]
  percentage damage caused to the plant, PRE Application ECHCG: 5 (5=80-100%)
[7]
  percentage damage caused to the plant, PRE Application SETFA: 5 (5=80-100%)
[8]
  percentage damage caused to the plant, PRE Application AMARE: 5 (5=80-100%)
[9]
  percentage damage caused to the plant, PRE Application LOLPE: 5 (5=80-100%)
[10]
  percentage damage caused to the plant, POST Application SOLNI: 5 (5=80-100%)
[11]
  percentage damage caused to the plant, PRE Application SOLNI: 5 (5=80-100%)
[12]
  percentage damage caused to the plant, POST Application AMARE: 5 (5=80-100%)

## O=C(Nc1nnnn1-c1ccccc1)c1nn2cnn(-c3ccccc3)c2nc1=O [Compound 1.027]
[1]
  percentage damage caused to the plant, POST Application ECHCG: 1 (1=0-19%)
[2]
  percentage damage caused to the plant, POST Application IPOHE: 3 (3=40-59%)
[3]
  percentage damage caused to the plant, POST Application LOLPE: 2 (2=20-39%)
[4]
  percentage damage caused to the plant, PRE Application IPOHE: 4 (4=60-79%)
[5]
  percentage damage caused to the plant, POST Application SETFA: 2 (2=20-39%)
[6]
  percentage damage caused to the plant, PRE Application ECHCG: 1 (1=0-19%)
[7]
  percentage damage caused to the plant, PRE Application SETFA: 2 (2=20-39%)
[8]
  percentage damage caused to the plant, PRE Application AMARE: 5 (5=80-100%)
[9]
  percentage damage caused to the plant, PRE Application LOLPE: 1 (1=0-19%)
[10]
  percentage damage caused to the plant, POST Application SOLNI: 5 (5=80-100%)
[11]
  percentage damage caused to the plant, PRE Application SOLNI: 5 (5=80-100%)
[12]
  percentage damage caused to the plant, POST Application AMARE: 4 (4=60-79%)
